The values below come from ChEMBL document CHEMBL1201862, “PubChem BioAssay data set” (2004).

Some test systems named below: RXF 393; U-251; MDA-MB-435; OVCAR-3; HCC 2998; HOP-62; NCI-H460; M14; MOLT-4; IGROV-1; SK-MEL-5; NCI-H23; Malme-3M; DU-145; UACC-62; LOX IMVI; SF-539; OVCAR-8.
Common to all, as to assay: NCI anticancer screen, dose series, 48 h

SMILES strings stand for the structures.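 Compound exposure: 48 hours, 5 concentrations, 96-well plates. Here, GI50 denotes the concentration required for 50% inhibition of growth.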 Activity calls are given as the source filed them. Cut-off read from the data, not from the text of the source: active = GI50 up to about 1.1 µM and inactive = higher. Some results are limits rather than exact numbers.

As for `CC[C@H](CO)Nc1nc(NCc2ccccc2)c2ncn(C(C)C)c2n1` [SELICICLIB], the GI50 in the test on RXF 393 was 4.9 µM (inactive); in the test on U-251 it was 53.8 µM (inactive); in the test with MDA-MB-435, 13.3 µM (inactive); in the test on OVCAR-3, 11.5 µM (inactive); in the test on HCC 2998 it was 32.2 µM (inactive); with HOP-62 it was 24.6 µM (inactive). For the same compound, the GI50 was 27.9 µM (inactive) in the test on NCI-H460; 27.9 µM (inactive) with M14; 25.1 µM (inactive) in the test with MOLT-4; 5.78 µM (inactive) with IGROV-1; 10.7 µM (inactive) in the test on SK-MEL-5; 13.2 µM (inactive) with NCI-H23. The GI50 in the test with Malme-3M is 19.3 µM (inactive); with DU-145 it was 16.9 µM (inactive); in the test with UACC-62, 8.07 µM (inactive); in the test with LOX IMVI, 14 µM (inactive); with SF-539 it was 15.8 µM (inactive).
For the compound `O=C1OC[C@H]2[C@@H]1[C@H]1O[C@@H]2C2=C(CCC2)C1=O`, the GI50 in the test on RXF 393, in the test on U-251, in the test with MDA-MB-435, in the test with OVCAR-3, in the test with HCC 2998 and in the test on HOP-62 was > 100 µM (inactive) each time. Further, the GI50 in the test on NCI-H460 is > 100 µM (inactive); in the test on M14, > 100 µM (inactive); in the test on MOLT-4 it was 1.11 µM (active); in the test on IGROV-1, > 100 µM (inactive); with SK-MEL-5, > 100 µM (inactive); in the test on OVCAR-8, > 100 µM (inactive). For the same compound, the GI50 in the test on NCI-H23, with Malme-3M, in the test with DU-145, in the test with UACC-62, with LOX IMVI and in the test with SF-539 was > 100 µM (inactive) each time.
Consider `Clc1ccc(C(c2ccc(Cl)cc2)N2CCNCC2)cc1`, for which the GI50 in the test on RXF 393 was 4.22 µM (inactive); with U-251, 2.02 µM (inactive); in the test on MDA-MB-435, 1.93 µM (inactive); with OVCAR-3, 1.9 µM (inactive); in the test with HCC 2998 it was 1.46 µM (inactive); in the test with HOP-62, 1.87 µM (inactive). Besides, the GI50 in the test with NCI-H460 is 2.05 µM (inactive); in the test on M14, 1.73 µM (inactive); in the test with MOLT-4 it was 1.87 µM (inactive); with IGROV-1, 1.77 µM (inactive); in the test on SK-MEL-5, 2.02 µM (inactive); with OVCAR-8, 2.07 µM (inactive). The GI50 was 5.24 µM (inactive) with NCI-H23; 1.58 µM (inactive) with Malme-3M; 2.47 µM (inactive) with DU-145; 1.77 µM (inactive) with UACC-62; 1.92 µM (inactive) in the test with LOX IMVI; 1.87 µM (inactive) in the test with SF-539.
For the compound `O=C1NC(=O)C2=C1CCC2O` (centres undefined), the GI50 in the test with RXF 393, in the test on U-251, in the test on MDA-MB-435, with OVCAR-3, in the test with HCC 2998 and in the test on HOP-62 was > 100 µM (inactive) throughout. The GI50 in the test with NCI-H460, in the test with M14, with MOLT-4, in the test on IGROV-1, with OVCAR-8 and in the test with NCI-H23 was > 100 µM (inactive) each time. Besides, the GI50 with Malme-3M, in the test with DU-145, in the test on UACC-62, in the test on LOX IMVI and in the test on SF-539 was > 100 µM (inactive) throughout.
As to `CCN(CCO)CC1COc2ccccc2O1` (centres undefined), the GI50 in the test with RXF 393, in the test with U-251, in the test with MDA-MB-435, in the test on OVCAR-3, with HCC 2998 and in the test with HOP-62 was > 100 µM (inactive) throughout. Besides, the GI50 in the test with NCI-H460, in the test with M14, in the test on MOLT-4, in the test with IGROV-1, in the test on SK-MEL-5 and in the test on OVCAR-8 was > 100 µM (inactive) in each case. Also, the GI50 in the test on NCI-H23, in the test with Malme-3M, in the test with DU-145, in the test with UACC-62, in the test with LOX IMVI and with SF-539 was > 100 µM (inactive) each time.
With `O=C1CC2OCC=C3CN4CCC5(C(=O)O)C(N1)C2C3CC45` (centres undefined), the GI50 in the test on RXF 393, with U-251, in the test with MDA-MB-435, with OVCAR-3, with HCC 2998 and in the test with HOP-62 was > 100 µM (inactive) in each case. The GI50 in the test on NCI-H460, with M14, with MOLT-4, with IGROV-1, with SK-MEL-5 and with OVCAR-8 was > 100 µM (inactive) throughout. Also, the GI50 in the test on NCI-H23, in the test with Malme-3M, in the test on DU-145, in the test with UACC-62, in the test with LOX IMVI and with SF-539 was > 100 µM (inactive) each time.
For the compound `COc1c(C2(c3ccc(F)cc3)SCCCS2)c(=O)c1=O`, the GI50 with RXF 393, with U-251, in the test on MDA-MB-435, in the test with OVCAR-3, with HCC 2998 and in the test on HOP-62 was > 100 µM (inactive) throughout. Also, the GI50 in the test with NCI-H460, in the test on M14, in the test on MOLT-4, in the test on SK-MEL-5, in the test on OVCAR-8 and with NCI-H23 was > 100 µM (inactive) in each case. For the same compound, the GI50 with Malme-3M, with DU-145, in the test on UACC-62, in the test on LOX IMVI and in the test with SF-539 was > 100 µM (inactive) each time.
As for `CCCCCCCCCCOC1C(C(C)OCCCN(C)C)OC2OC3(CCCCC3)OC21` (centres undefined), the GI50 was 14.9 µM (inactive) in the test with RXF 393; 14.5 µM (inactive) in the test on U-251; 16.2 µM (inactive) in the test with MDA-MB-435; 14.7 µM (inactive) in the test with OVCAR-3; 13.3 µM (inactive) with HCC 2998; 16.4 µM (inactive) in the test on HOP-62. Also, the GI50 in the test with NCI-H460 is 3.08 µM (inactive); in the test with M14 it was 3.33 µM (inactive); in the test on MOLT-4, 12.9 µM (inactive); in the test with IGROV-1, 14.3 µM (inactive); with SK-MEL-5 it was 15.8 µM (inactive); in the test on OVCAR-8, 18.8 µM (inactive). Further, the GI50 in the test with NCI-H23 is 10.2 µM (inactive); in the test with Malme-3M, 15.2 µM (inactive); in the test on DU-145 it was 17.1 µM (inactive); in the test with UACC-62 it was 13.3 µM (inactive); in the test on LOX IMVI, 1.93 µM (inactive).
For `COc1ccc(Nc2nc3ccc(C(F)(F)F)cc3nc2C(=O)O)cc1OC`, the GI50 is 29.6 µM (inactive) in the test with RXF 393; 27.4 µM (inactive) with U-251; 32.7 µM (inactive) with MDA-MB-435; 17.9 µM (inactive) in the test on OVCAR-3; 18.7 µM (inactive) in the test on HCC 2998; 25.2 µM (inactive) in the test on HOP-62. For the same compound, the GI50 is 21.2 µM (inactive) in the test with NCI-H460; 16.1 µM (inactive) in the test with MOLT-4; 34.3 µM (inactive) with IGROV-1; 20.1 µM (inactive) with SK-MEL-5; 23.2 µM (inactive) with OVCAR-8; 24.4 µM (inactive) with NCI-H23. Besides, the GI50 is 31.7 µM (inactive) with Malme-3M, 28.6 µM (inactive) in the test on DU-145, 21.7 µM (inactive) with UACC-62 and 28.8 µM (inactive) in the test on LOX IMVI.
With `CCOC(=O)c1c(N2CCCC2)ncn(-c2ccccc2)c1=S`, the GI50 is > 100 µM (inactive) with RXF 393; > 100 µM (inactive) with U-251; > 100 µM (inactive) in the test on MDA-MB-435; 49.4 µM (inactive) in the test with OVCAR-3; > 100 µM (inactive) in the test with HCC 2998; > 100 µM (inactive) with HOP-62. The GI50 with NCI-H460, in the test on M14, with MOLT-4, in the test on IGROV-1, in the test with SK-MEL-5 and with OVCAR-8 was > 100 µM (inactive) each time. Also, the GI50 in the test on Malme-3M was 57.5 µM (inactive); with DU-145, > 100 µM (inactive); in the test with UACC-62, > 100 µM (inactive); in the test with LOX IMVI it was > 100 µM (inactive); in the test with SF-539, > 100 µM (inactive).
Turning to `Cc1cc2c(c(C(=O)NCCC(=O)O)c1)Oc1c(cc(C)cc1C(=O)NCCC(=O)O)S2`, the GI50 in the test on RXF 393, in the test on U-251, in the test with MDA-MB-435, in the test with OVCAR-3, in the test on HCC 2998 and in the test with HOP-62 was > 100 µM (inactive) each time. Besides, the GI50 in the test with M14, in the test on MOLT-4, with IGROV-1, with OVCAR-8, in the test with NCI-H23 and in the test with Malme-3M was > 100 µM (inactive) in each case. Moreover, the GI50 in the test on DU-145, in the test with UACC-62, in the test on LOX IMVI and in the test with SF-539 was > 100 µM (inactive) throughout.
